Test systems include OVCAR-3 ovarian; SNB-19 CNS; U251 CNS; SF-539 CNS; HL-60(TB) leukemia; UACC-62 melanoma; COLO 205 colon; NCI-H23 lung; K-562 leukemia; A498 renal.
Common to all, as to assay: NCI tumour cell line growth inhibition, 48 h

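96-well plates; 48 h exposure; 5 concentrations. Endpoints by linear interpolation between flanking doses. Not reached: highest tested concentration assigned. Here, GI50 denotes the concentration required for 50% inhibition of growth. At the TGI there is no net growth.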

For the compound `Cc1cc2c(C)n(Cc3ccc(Cl)cc3Cl)nc2c(C(=O)O)c1C`, the TGI in the experiment with OVCAR-3 ovarian, with SNB-19 CNS, with U251 CNS, with SF-539 CNS, in the experiment with HL-60(TB) leukemia and in the experiment with UACC-62 melanoma was over 100 µM throughout. Besides, the TGI in the experiment with COLO 205 colon and in the experiment with NCI-H23 lung was over 100 µM in each case.
In the case of `CC1(C)OC(=O)C=C([O-])O1.CC1(C)OC(=O)C=C([O-])O1.CC[O-].CC[O-].[Ti+4]`, the GI50 in the experiment on OVCAR-3 ovarian, in the experiment with K-562 leukemia, with SNB-19 CNS, with U251 CNS, with SF-539 CNS and with HL-60(TB) leukemia was over 100 µM in each case. The GI50 in the experiment on UACC-62 melanoma, with COLO 205 colon and with NCI-H23 lung was over 100 µM each time. Besides, the TGI in the experiment with OVCAR-3 ovarian, in the experiment with K-562 leukemia, in the experiment on SNB-19 CNS, in the experiment with U251 CNS, in the experiment with SF-539 CNS and with HL-60(TB) leukemia was over 100 µM throughout. For the same compound, the TGI in the experiment with UACC-62 melanoma, in the experiment on COLO 205 colon and with NCI-H23 lung was over 100 µM throughout.
Consider `COc1ccc(Nc2c3ccccc3nc3[nH]c4ccccc4c23)cc1`, for which the GI50 with OVCAR-3 ovarian was 19.4 µM; with K-562 leukemia it was 7.17 µM; in the experiment on SNB-19 CNS it was 25.5 µM; with U251 CNS, 11.7 µM; with SF-539 CNS, 6.5 µM; in the experiment with HL-60(TB) leukemia it was 4.98 µM. The results for the GI50 with UACC-62 melanoma, with COLO 205 colon and with NCI-H23 lung were 16.2 µM, 17.8 µM and over 50 µM, respectively. Further, the TGI with OVCAR-3 ovarian is over 50 µM; with K-562 leukemia, over 50 µM; in the experiment on SNB-19 CNS, over 50 µM; in the experiment on U251 CNS it was 42.8 µM; in the experiment with SF-539 CNS it was 20 µM; in the experiment on HL-60(TB) leukemia, over 50 µM. In addition, the TGI with UACC-62 melanoma, in the experiment on COLO 205 colon and with NCI-H23 lung was over 50 µM each time.
Consider `COc1cc2c3c(n(CCCN=[N+]=[N-])c(=O)c2cc1OC)-c1ccc(N(C)C)cc1C3=O`, for which the GI50 with OVCAR-3 ovarian, with K-562 leukemia, with SNB-19 CNS, in the experiment on U251 CNS, with SF-539 CNS and in the experiment on HL-60(TB) leukemia was over 100 µM each time. Further, the GI50 in the experiment with UACC-62 melanoma, in the experiment with COLO 205 colon and in the experiment with NCI-H23 lung was over 100 µM throughout. In addition, the TGI in the experiment on OVCAR-3 ovarian, in the experiment with K-562 leukemia, in the experiment with SNB-19 CNS, with U251 CNS, in the experiment on SF-539 CNS and in the experiment with HL-60(TB) leukemia was over 100 µM throughout. Besides, the TGI with UACC-62 melanoma, in the experiment on COLO 205 colon and in the experiment on NCI-H23 lung was over 100 µM in each case.
As to `O=C(Nc1ccc(Cl)c(Cl)c1)OCCN1c2ccccc2Sc2ccccc21`, the TGI with OVCAR-3 ovarian, in the experiment on K-562 leukemia, in the experiment with SNB-19 CNS, in the experiment with U251 CNS, in the experiment on SF-539 CNS and in the experiment on HL-60(TB) leukemia was over 10 µM in each case. The TGI in the experiment with UACC-62 melanoma, with COLO 205 colon and in the experiment with NCI-H23 lung was over 10 µM each time.
As to `COC(=O)C1=CC2OC1(C)CCC2=O` (configuration not stated), the TGI in the experiment with OVCAR-3 ovarian was over 100 µM; in the experiment with K-562 leukemia it was over 100 µM; in the experiment with SNB-19 CNS, over 100 µM; with U251 CNS, over 100 µM; in the experiment with SF-539 CNS it was over 100 µM; in the experiment with HL-60(TB) leukemia it was 80.4 µM. In addition, the TGI in the experiment with COLO 205 colon and in the experiment with NCI-H23 lung was over 100 µM in each case.
`O=C1OC(OCC#CCOC2OC(=O)C(Cl)=C2Cl)C(Cl)=C1Cl` (configuration not stated): the TGI turned out to be 30.7 µM in the experiment with OVCAR-3 ovarian; 42.5 µM with SNB-19 CNS; 31.8 µM with SF-539 CNS; 38.3 µM in the experiment on UACC-62 melanoma; 40.9 µM with NCI-H23 lung.
As to `NCCSCCc1ccccc1`, the TGI in the experiment with OVCAR-3 ovarian, with K-562 leukemia, with SNB-19 CNS, in the experiment on U251 CNS, in the experiment on SF-539 CNS and with A498 renal was over 100 µM each time. Also, the TGI in the experiment with UACC-62 melanoma, in the experiment with COLO 205 colon and in the experiment with NCI-H23 lung was over 100 µM in each case.
As for `Cc1c(Sc2ccccc2)[n+](=O)c2cc(Cl)c(Cl)cc2n1[O-]`, the GI50 in the experiment on OVCAR-3 ovarian is 23.3 µM; in the experiment with K-562 leukemia it was 2.22 µM; in the experiment on SNB-19 CNS it was over 100 µM; with U251 CNS it was over 100 µM; in the experiment with SF-539 CNS, 89.9 µM; in the experiment with UACC-62 melanoma, over 100 µM. Further, the GI50 with COLO 205 colon is 49 µM; in the experiment on NCI-H23 lung, 33.2 µM. Further, the TGI with OVCAR-3 ovarian is 60.4 µM; in the experiment on K-562 leukemia, 11.3 µM; in the experiment with SNB-19 CNS it was over 100 µM; in the experiment with U251 CNS, over 100 µM; in the experiment with SF-539 CNS, over 100 µM; in the experiment on UACC-62 melanoma it was over 100 µM. The TGI with COLO 205 colon and with NCI-H23 lung was over 100 µM each time.
In the case of `COc1ccc2c(c1OC)C(=O)c1cnccc1C2=O`, the TGI with OVCAR-3 ovarian, in the experiment with K-562 leukemia, in the experiment on SNB-19 CNS, with U251 CNS, in the experiment with SF-539 CNS and in the experiment with HL-60(TB) leukemia was over 100 µM in each case. Moreover, the TGI in the experiment with UACC-62 melanoma, in the experiment on COLO 205 colon and in the experiment on NCI-H23 lung was over 100 µM each time.
With `COC(=O)[C@@H](C)C[C@H](Cc1ccccc1)NC(=O)c1csc([C@@H](C[C@H](C(C)C)N(C)C(=O)[C@H](C)NC(=O)[C@H]2CCCCN2C)OC(C)=O)n1`, the GI50 is 0.551 µM in the experiment on OVCAR-3 ovarian; 0.278 µM in the experiment with K-562 leukemia; 0.901 µM in the experiment with SNB-19 CNS; 1.58 µM with U251 CNS; 1.42 µM with SF-539 CNS; 1.87 µM in the experiment with A498 renal. The GI50 is 1.27 µM in the experiment on UACC-62 melanoma, 1.12 µM with COLO 205 colon and 7.55 µM with NCI-H23 lung. The TGI with OVCAR-3 ovarian is over 25 µM; in the experiment with K-562 leukemia, over 25 µM; in the experiment with SNB-19 CNS it was over 25 µM; in the experiment on U251 CNS, over 25 µM; in the experiment on SF-539 CNS it was 20.6 µM; in the experiment on A498 renal, 14.1 µM. For the same compound, the TGI with UACC-62 melanoma was over 25 µM; in the experiment on COLO 205 colon, 20.2 µM; with NCI-H23 lung, over 25 µM.
For the compound `C=CS(=O)(=O)CCN1CC1`, the TGI in the experiment with OVCAR-3 ovarian, in the experiment with K-562 leukemia, in the experiment on U251 CNS, in the experiment on SF-539 CNS, in the experiment with HL-60(TB) leukemia and with UACC-62 melanoma was over 10 µM each time. In addition, the TGI in the experiment with COLO 205 colon and with NCI-H23 lung was over 10 µM each time.
In the case of `CN(/N=N/c1nc(OCc2ccccc2)c2[nH]cnc2n1)C(=O)Oc1ccc([N+](=O)[O-])cc1`, the GI50 is 9.49 µM in the experiment on OVCAR-3 ovarian; 11.9 µM in the experiment on K-562 leukemia; 9.6 µM in the experiment with SNB-19 CNS; 7.51 µM in the experiment with U251 CNS; 9.88 µM in the experiment with SF-539 CNS; 11.9 µM in the experiment on HL-60(TB) leukemia. Moreover, the values for the GI50 in the experiment with UACC-62 melanoma, in the experiment on COLO 205 colon and in the experiment with NCI-H23 lung were 7.5 µM, 10.2 µM and 8.44 µM, respectively. In addition, the TGI in the experiment with OVCAR-3 ovarian is 24.4 µM; in the experiment on K-562 leukemia, over 50 µM; in the experiment on SNB-19 CNS, 27.9 µM; with U251 CNS it was 15.3 µM; in the experiment on SF-539 CNS, 28.8 µM; with HL-60(TB) leukemia, over 50 µM. Moreover, the TGI with UACC-62 melanoma was determined as 15.2 µM; with COLO 205 colon it was 29.7 µM; in the experiment on NCI-H23 lung, 16.4 µM.
In the case of `CO[C@H]1CC(c2ccc[nH]2)=N[C@]12O[C@@H](C)C[C@@H]1CCCCCCCc3ccc([nH]3)[C@H]12`, the GI50 with OVCAR-3 ovarian is 0.942 µM; with K-562 leukemia, 0.821 µM; with SNB-19 CNS it was 3.41 µM; with U251 CNS, 1.14 µM; in the experiment with SF-539 CNS, 1.01 µM; in the experiment with HL-60(TB) leukemia, 1.24 µM. Moreover, the results for the GI50 in the experiment with UACC-62 melanoma, in the experiment with COLO 205 colon and with NCI-H23 lung were 0.659 µM, 0.794 µM and 1.21 µM, respectively. Besides, the TGI is 5.62 µM with OVCAR-3 ovarian; over 24.2 µM with K-562 leukemia; over 33.3 µM in the experiment with SNB-19 CNS; 17.3 µM in the experiment with U251 CNS; 9.26 µM in the experiment with SF-539 CNS; 4.97 µM with HL-60(TB) leukemia. Also, the values for the TGI in the experiment on UACC-62 melanoma, in the experiment with COLO 205 colon and in the experiment on NCI-H23 lung were 1.45 µM, 4.68 µM and 8.03 µM, respectively.
For `c1ccc(CNc2nc(Nc3ccccc3)nc3ccccc23)cc1`, the GI50 in the experiment with OVCAR-3 ovarian is 1.77 µM; in the experiment with SNB-19 CNS, 3.16 µM; in the experiment on U251 CNS, 1.52 µM; in the experiment with SF-539 CNS, 1.69 µM; with A498 renal it was 1.29 µM; in the experiment on UACC-62 melanoma, 1.48 µM. Also, the GI50 is 1.89 µM in the experiment with COLO 205 colon and 2.17 µM in the experiment with NCI-H23 lung. Besides, the TGI with OVCAR-3 ovarian came out at 3.53 µM; in the experiment with SNB-19 CNS it was 14.6 µM; in the experiment with U251 CNS it was 2.91 µM; in the experiment on SF-539 CNS it was 3.14 µM; in the experiment on A498 renal it was 5.7 µM; in the experiment on UACC-62 melanoma, 2.95 µM. The TGI is 3.77 µM in the experiment with COLO 205 colon and 9.25 µM in the experiment on NCI-H23 lung.
As for `C=CCCCc1ccc(C(O)CCCCCCCCCCCC)o1` (configuration not stated), the GI50 in the experiment with OVCAR-3 ovarian was 19 µM; in the experiment with K-562 leukemia, 24.5 µM; in the experiment with SNB-19 CNS, 17.7 µM; in the experiment with U251 CNS, 15.5 µM; in the experiment on SF-539 CNS, 22.1 µM; with UACC-62 melanoma it was 17.7 µM. The values for the GI50 in the experiment with COLO 205 colon and in the experiment on NCI-H23 lung were 19.6 µM and 22.3 µM, respectively. The TGI with OVCAR-3 ovarian was 38.8 µM; in the experiment with K-562 leukemia it was over 100 µM; in the experiment with SNB-19 CNS it was 32.8 µM; in the experiment with U251 CNS, 29.1 µM; in the experiment with SF-539 CNS it was 40.6 µM; in the experiment on UACC-62 melanoma, 43 µM. Further, the TGI with COLO 205 colon worked out at 38.6 µM; in the experiment on NCI-H23 lung, 52.5 µM.

Source of the values: PubChem BioAssay (NCI).
